Target: recombinant mTOR (Homo sapiens (Human), UniProt P42345)
Assay: mTOR kinase assay (33P incorporation into 4EBP1)
Assay type: biochemical
Conditions: compound at 10 μM, 10 μM ATP
Protocol: The activity of the compound against mTOR was examined by measuring the incorporation of ^33P from [γ-^33P]-ATP into 4EBP1. His-tagged, recombinant human 4EBP1 was expressed in E. coli, purified by nickel-nitrilotriacetic acid (Ni-NTA) resins, and stored at −80° C. Phosphorylation of 4EBP1 by mTOR was assayed in the presence or absence of the compound and performed in a final volume of 25 μl reaction buffer containing 300 ng 4EBP1, 50 ng recombinant mTOR (Invitrogen), 50 mM HEPES (pH 7.5), 1 mM EGTA, 0.01% Polysorbate 20, 10 mM MnCl2, 2.5 mM DTT, 10 μM ATP, and 0.5 μCi [γ-33P]-ATP (PerkinElmir) for 30 min at 30° C. The reactions were terminated by adding 3% phosphoric acid. The ^33P labeled 4EBP1 was transferred onto UniFilter-96 GF/B plate (PerkinElmer) and quantified by Top Count Microplate Scintillation Counter (PerkinElmer). For primary screening of kinase activity inhibition, each test compound was evaluated at […] in duplicate. […] The IC50 values of the compounds were determined after carrying out assays at eight serially diluted concentrations of each compound in duplicate. The results were analyzed using linear regression software (GraphPad Prism 5; GraphPad Software Inc.).
IC50 value is defined as the concentration of the test compound which achieves a half-maximal inhibition of the kinase activity.

Chain of recombinant mTOR (P42345 1360-2549): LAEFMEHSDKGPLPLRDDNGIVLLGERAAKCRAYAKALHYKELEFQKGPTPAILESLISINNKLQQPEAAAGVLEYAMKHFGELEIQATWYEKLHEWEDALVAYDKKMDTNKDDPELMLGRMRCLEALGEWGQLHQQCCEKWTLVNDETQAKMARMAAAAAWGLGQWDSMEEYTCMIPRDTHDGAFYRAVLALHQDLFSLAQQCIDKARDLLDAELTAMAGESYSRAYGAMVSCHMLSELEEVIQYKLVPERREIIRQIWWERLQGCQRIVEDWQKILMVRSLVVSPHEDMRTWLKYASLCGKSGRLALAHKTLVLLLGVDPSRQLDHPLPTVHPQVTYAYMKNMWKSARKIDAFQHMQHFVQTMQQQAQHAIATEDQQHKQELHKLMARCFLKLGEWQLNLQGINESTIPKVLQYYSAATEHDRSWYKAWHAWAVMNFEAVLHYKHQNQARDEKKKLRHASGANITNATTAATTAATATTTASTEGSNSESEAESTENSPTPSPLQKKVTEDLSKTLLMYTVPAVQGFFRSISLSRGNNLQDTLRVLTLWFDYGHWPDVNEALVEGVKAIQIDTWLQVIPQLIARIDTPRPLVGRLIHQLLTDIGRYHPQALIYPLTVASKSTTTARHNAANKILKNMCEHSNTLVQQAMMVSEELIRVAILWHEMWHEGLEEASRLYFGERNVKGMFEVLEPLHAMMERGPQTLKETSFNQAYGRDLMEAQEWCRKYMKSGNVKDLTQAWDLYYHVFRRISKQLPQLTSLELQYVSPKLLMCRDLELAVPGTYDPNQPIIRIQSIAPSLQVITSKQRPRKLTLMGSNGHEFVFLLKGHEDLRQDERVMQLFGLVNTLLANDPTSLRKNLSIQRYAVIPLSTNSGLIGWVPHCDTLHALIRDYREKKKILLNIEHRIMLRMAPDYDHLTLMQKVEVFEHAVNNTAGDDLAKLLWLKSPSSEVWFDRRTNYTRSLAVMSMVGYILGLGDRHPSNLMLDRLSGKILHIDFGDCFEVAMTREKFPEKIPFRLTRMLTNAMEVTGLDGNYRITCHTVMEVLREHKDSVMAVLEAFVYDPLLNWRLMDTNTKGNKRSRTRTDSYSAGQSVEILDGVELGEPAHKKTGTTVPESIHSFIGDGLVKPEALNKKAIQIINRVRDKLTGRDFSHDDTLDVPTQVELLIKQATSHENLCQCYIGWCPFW

SMILES	inhibition at 10 µM
COc1cnc(-c2ccc(NC(N)=O)cc2)nc1N1CCOCC1 [MTR-0336, [4-(5-Methoxy-4-morpholin-4-yl-pyrimidin-2-yl)-phenyl]-urea]	89%
CCOC(=O)c1nc(-c2cnc(NC(=O)Nc3ccc(N4CCOCC4=O)cc3)nc2)nc(N2CCOCC2)c1OCC [MTR-0403, 5-Ethoxy-6-morpholin-4-yl-2′-{3-[4-(3-oxo-morpholin-4-yl)-phenyl]-ureido}-[2,5′]bipyrimidinyl-4-carboxylic acid ethyl ester]	88%
CSc1c(Cl)nc(-c2ccc(NC(=O)Nc3ccc4c(c3)OCO4)cc2)nc1N1CCOCC1 [MTR-0256, 1-Benzo[1,3]dioxol-5-yl-3-[4-(4-chloro-5-methylsulfanyl-6-morpholin-4-yl-pyrimidin-2-yl)-phenyl]-urea]	90%
CCOC(=O)c1ccc(NC(=O)Nc2ccc(-c3ncc(SC)c(N4CCOCC4)n3)cc2)cc1 [MTR-0264, 4-{3-[4-(5-Methylsulfanyl-4-morpholin-4-yl-pyrimidin-2-yl)-phenyl]-ureido}-benzoic acid ethyl ester]	86%
CSc1c(Cl)nc(-c2ccc(NC(=O)NC(C)C)cc2)nc1N1CCOCC1 [MTR-0306, 1-[4-(4-Chloro-5-methylsulfanyl-6-morpholin-4-yl-pyrimidin-2-yl)-phenyl]-3-isopropyl-urea]	90%
CSc1c(Cl)nc(-c2ccc(NC(=O)Nc3ccc(NC(C)=O)nc3)cc2)nc1N1CCOCC1 [MTR-0415, N-(5-{3-[4-(4-Chloro-5-methylsulfanyl-6-morpholin-4-yl-pyrimidin-2-yl)-phenyl]-ureido}-pyridin-2-yl)-acetamide]	81%
CCOC(=O)c1nc(-c2cccc(O)c2)nc(N2CCOCC2)c1OC [MTR-0073, 2-(3-Hydroxy-phenyl)-5-methoxy-6-morpholin-4-yl-pyrimidine-4-carboxylic acid ethyl ester]	86%

Further lines, results first:

inhibition at 10 µM	SMILES
100%	CCOc1c(-c2ccncc2)nc(-c2ccc(NC(=O)Nc3ccncc3)cc2)nc1N1CCOCC1 [MTR-0492, 1-[4-(5-Ethoxy-4-morpholin-4-yl-6-pyridin-4-yl-pyrimidin-2-yl)-phenyl]-3-pyridin-4-yl-urea]
87%	CCOC(=O)c1nc(-c2ccc(NC(=O)Nc3ccc(F)c(F)c3)cc2)nc(N2CCOCC2)c1OCC [MTR-0150, 2-{4-[3-(3,4-Difluoro-phenyl)-ureido]-phenyl}-5-ethoxy-6-morpholin-4-yl-pyrimidine-4-carboxylic acid ethyl ester]
83%	CCOC(=O)c1nc(-c2ccc(NC(=O)Nc3ccc(Cl)nc3)cc2)nc(N2CCOCC2)c1OCC [MTR-0079, 2-{4-[3-(6-Chloro-pyridin-3-yl)-ureido]-phenyl}-5-ethoxy-6-morpholin-4-yl-pyrimidine-4-carboxylic acid ethyl ester]
86%	CCOc1c(Cl)nc(-c2ccc(NC(=O)Nc3ccc(N4CCOCC4=O)cc3)cc2)nc1N1CCOCC1 [MTR-0494, 1-[4-(4-Chloro-5-ethoxy-6-morpholin-4-yl-pyrimidin-2-yl)-phenyl]-3-[4-(3-oxo-morpholin-4-yl)-phenyl]-urea]
87%	CSc1c(Cl)nc(-c2ccc(NC(=O)Nc3ccc(Cl)nc3)cc2)nc1N1CCOCC1 [MTR-0077, 1-[4-(4-Chloro-5-methylsulfanyl-6-morpholin-4-yl-pyrimidin-2-yl)-phenyl]-3-(6-chloro-pyridin-3-yl)-urea]
100%	CCOc1c(-c2cccnc2)nc(-c2ccc(NC(=O)Nc3cccnc3)cc2)nc1N1CCOCC1 [MTR-0491, 1-[4-(5-Ethoxy-4-morpholin-4-yl-6-pyridin-3-yl-pyrimidin-2-yl)-phenyl]-3-pyridin-3-yl-urea]
100%	CCOc1c(-c2ccncc2)nc(-c2ccc(NC(=O)Nc3ccc(N4CCOCC4=O)cc3)cc2)nc1N1CCOCC1 [MTR-0495, 1-[4-(5-Ethoxy-4-morpholin-4-yl-6-pyridin-4-yl-pyrimidin-2-yl)-phenyl]-3-[4-(3-oxo-morpholin-4-yl)-phenyl]-urea]

From patent publication US9315491B2 (DEVELOPMENT CENTER FOR BIOTECHNOLOGY, priority 2009, dated 2016)
